“Also recorded” adds a separate entry of the source. Some results are limits rather than exact numbers.

For series [1] the following is noted: cited from earlier work.
A short description of series [2]: Catalytic activity of surface bound thrombin, Michaelis Menten kinetics. The class given is biochemical. The following applies: PBS pH 7.4, 37° C., Spectrozyme TH 0.7-750 μM. Here is the method:
Michaelis Menten kinetics were utilized to test the catalytic activity of the surface bound thrombin on the AuNP-TH using a microplate chromogenic substrate hydrolysis assay. Briefly, 165 μL aliquots of PBS buffer pH 7.4 were placed in a 96-well microplate, to which either 5 μL of thrombin at a concentration of 0.04 mg/ml (1 μM) or 5 μL of AuNP-TH was added. The solution was incubated for 5 minutes at 37° C., followed by addition of 30 μL of serial dilutions of Spectrozyme TH substrate such that the final concentrations ranged from 0.7-750 μM. The velocity of substrate hydrolysis was measured by monitoring the slope of the increase in absorbance at 405 nm. A plot of velocity of substrate hydrolysis (v) vs substrate concentration ([S]) (FIG. 5) was fit to the Michaelis Menten equation below to yield the Michaelis Menten constant (KM) and maximum velocity of the reaction (VMAX), which are a direct measure of the catalytic efficiency of the enzyme.

The procedure of series [3]: Stability of Au-TH nanoparticles was studied at RT and at −80° C. The NPs were kept in dark at RT for six hours and at −80° C. for 1 month. Absorbance spectra were measured every hour.
A further series deals with T1, Au-TH nanoprobe (Bos taurus, UniProt P00735).
T1 construct: An aliquot of bovine α-thrombin (200 μg) from a stock solution; purchased Haematologic Technologies, Vermont, USA BCT-1020
Kind of series: Quenching of [5F]-hirudin (54-65) SO3- fluorescence by Au-TH nanoprobe. In kind it is binding, bovine. The following applies: 30 nM HirP, 0.5 h at RT, 525 nm (λex=488 nm).

Series [4] deals with T2, surface bound thrombin on the AuNP (Bos taurus, UniProt P00735).
T2 construct: An aliquot of bovine α-thrombin (200 μg) from a stock solution; purchased Haematologic Technologies, Vermont, USA BCT-1020
Description: Reactivity of surface bound thrombin to antithrombin, chromogenic substrate hydrolysis assay. The class given is biochemical, bovine. The following applies: AT alone. How it is done:
To test if the surface bound thrombin on the AuNP is reactive towards antithrombin, chromogenic substrate hydrolysis assay like the one mentioned above was performed in the presence of antithrombin and heparin. In a 96-well microplate, 80 μL of PBS buffer was mixed with 5 μL of either AuNP or water. Following this, 5 μL of AT (100 μM) and 5 μL of heparin (3.6 mM) was added and the mixtures were incubated at 25° C. for 20 minutes. Controls were kept with and without AT and heparin, respectively. After incubation, 5 μL of 5 mM Spectrozyme TH was added and the rate of substrate hydrolysis was monitored by observing the absorbance at 405 nm. The velocity of the substrate hydrolysis as obtained by the slope was compared to that of the controls in order to assess the reactivity of the thrombin towards AT (FIG. 6). An approximate 70% reactivity towards AT in the presence of heparin is observed for the AuNP-TH sample.

Series [5] has as its target T3, Au-TH-HirP nanoprobe (NSET pair) (Bos taurus, UniProt P00735).
T3 construct: An aliquot of bovine α-thrombin (200 μg) from a stock solution; purchased Haematologic Technologies, Vermont, USA BCT-1020
Description: Probing antithrombin levels in buffer with Au-TH-HirP nanoprobe (NSET pair). In kind it is binding, bovine. The following applies: for increase in fluorescence at 525 nm: 1 hr incubation. How it is done: Au-TH-NP (6 nM, 50 μL) and HirP (50 μL, 30 nM) were mixed with 20 mM Tris-HCl buffer, pH 7.4, containing 100 mM NaCl, 2.5 mM CaCl2 and 0.1% PEG8000 and used as the standard nano-metal surface energy transfer (NSET) pair. Antithrombin (AT) was serially diluted starting from 100 μM to 1 pM by adding 20 mM Tris-HCl buffer, pH 7.4. Serially diluted AT solutions were then incubated with standard NSET pair in a 96-well plate for 0-1 h at RT with gentle rocking. A solution of 100 μL of Au-TH-HirP nanoprobe (NSET pair) mixed with 50 μL of buffer was used a control (F0). After 1 h of incubation, the 96-well plate was read at 525 nm (λex=488 nm) (F). A plot of F/F0 as Y-axis against AT concentration as X-axis is shown as FIG. 5. […] The fluorescence increases were smaller at 15, 30 and 45 min timepoints (FIG. 5).

For series [6] the following is noted: in vivo; cited from earlier work.
The target in series [7] is T4, NSET pair (Au-TH-NS and HirP) (Bos taurus, UniProt P00735).
T4 construct: An aliquot of bovine α-thrombin (200 μg) from a stock solution; purchased Haematologic Technologies, Vermont, USA BCT-1020
Description: Probing antithrombin levels in plasma with NSET pair. In kind it is binding, bovine. The following applies: 600 μM BSA, 5-20 μL. Here is the method: A 96-well plate was used for this experiment. The baseline fluorescence of the NSET pair (Au-TH-NS (6 nM, 50 μL) and HirP (50 μL, 30 nM) in 50 μL of 20 mM Tris-HCl buffer, pH 7.4, containing 100 mM NaCl, 2.5 mM CaCl2 and 0.1% PEG8000) was measured by recording the fluorescence emission at 525 nm (λex=488 nm). The NSET pair was then incubated with different volumes of plasma (5 μL, 10 μL, 15 μL and 20 μL). To assess specificity of AT reaction, the NSET pair was also incubated with 600 μM BSA (5 μL, […], 15 μL and 20 μL). The fluorescence intensity was recorded within 1-3 min after incubation began (FIG. 6).

In a further series the test system is AT levels. The following applies: in vivo; cited from earlier work.
For another series, the target named is T5, PF-4 heparin complex (Homo sapiens, UniProt P02776).
T5 sequence (P02776 32-101): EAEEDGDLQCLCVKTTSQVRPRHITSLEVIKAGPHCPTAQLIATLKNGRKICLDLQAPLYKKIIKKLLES
Conditions: in vivo; cited from earlier work.

Consider `CCCCCCOC(=O)NC(=N)c1ccc(NCc2nc3cc(C(=O)N(CCC(=O)OCC)c4ccccn4)ccc3n2C)cc1` [Dabigatran etexilate], for which, in [1] (doses as high as 300 mg twice a day for 12 weeks), the liver function tests result is “no abnormal liver function tests”. Moreover, the “patients who developed significant bleeding” value in [1] (trial with and without aspirin) is listed as “approximately 11%”.
As for “Au-TH nanoparticles: gold nanoparticles covalently linked to bovine alpha-thrombin”, the “VMAX and KM / catalytic efficiency compared with free thrombin” value in series [2] (listed as Au-TH NP) is reported as “identical to that of free thrombin”; in series [2] (listed as AuNP-TH) it was “remain almost the same as that of free thrombin”. Besides, in series [3] (RT, in dark, six hours), the “stability, change in absorbance spectra” value is reported as “essentially no change”. Further, the “stability, degradation on storage” value in series [3] (−80° C., 1 month) is “did not exhibit any degradation”.
[5F]-hirudin (54-65) SO3^− [HirP]: on Au-TH nanoprobe, the “quenching of fluorescence from HirP” value is given as “approximately 86%”.
Consider antithrombin [AT], for which, in series [4], the “neutralization of surface bound thrombin by AT” value is “up to 60%”. In addition, in series [5] (15, 30 and 45 min timepoints versus 1 hr), the “fluorescence increases at earlier timepoints” value is reported as “smaller”. Also, the “increase in fluorescence at 525 nm” value in series [5] (AT 1 μM) was “approximately 40%”; in [5] (AT 10 μM) it was approximately 25; in series [5] (AT 100 μM) it was approximately 20%. Besides, the increase in fluorescence entry in series [5] (AT concentrations less than 1 μM) is “Noticeable increases”.
Regarding bivalirudin, the half-life (usually how long it takes for the measured level to halve) in series [6] is 25 min.
For bovine serum albumin [BSA], the “change in emission intensity” value in [7] is “significant decrease; also recorded: Corresponding increases were not observed”.
On to heparin, for which the “incidence of acquired AT deficiency” value with AT levels is not above 25%.
In the case of unfractionated heparin [UFH], at PF-4 heparin complex, the “patients forming antibodies to PF-4 heparin” value is 30-40%.

Source of the values: patent US20170058319A1, “NANOSENSOR FOR ASSESSING THROMBIN INHIBITORS” (VIRGINIA COMMONWEALTH UNIVERSITY, priority 2014, published 2017).
